Values quoted from earlier work, collected in article PMC8623647 (Pharmaceuticals, 2021).

Test system: MAO-B
Set-up: method as in PMID 30915862
Details: study of Shalaby et al. ref 25; cited from earlier work

## CSc1ccc(C(=O)/C=C/c2cccc(Br)c2)cc1 [(E)-3-(3-bromophenyl)-1-(4-(methylthio)phenyl)prop-2-en-1-one]
  IC50: 190 ± 10 nM
